Key:
Assay type in all cases: cell-based, mouse
[1] = tested on: constitutively-active Stat3 in NIH3T3/v-Src; experiment: Constitutive Stat3 DNA-binding activity in treated NIH3T3/v-Src cells (EMSA of nuclear extracts)
Protocol: FIGS. 3A-3D. Inhibition of Stat3-mediated gene expression by PLATINUM-401. (FIG. 3A) and (FIG. 3B) v-Src-transformed mouse fibroblasts that stably express Stat3-dependent (NIH3T3/v-Src/pLucTKS3) and Stat3-independent (NIH3T3/v-Src/pRLSRE) luciferase reporters or β-galactosidase (β-gal), as well as normal mouse fibroblast (NIH3T3) transiently transfected with pLucTKS3, pGL2-VEGF-Luc, NFkB-Luc or pLucSRE together with or without v-Src were treated with or without PLATINUM-401 for 48 h. Cytosolic extracts were then prepared from cells for luciferase and […] activities measurements. Values are the means and S.D. of three to five independent assays; (FIG. 3C) and (FIG. 3D) Nuclear extracts or whole cell lysates were prepared from IL-6-stimulated normal mouse fibroblasts (NIH3T3) or their v-Src-transformed counterpart (NIH3T3/v-Src) that are treated with or without PLATINUM-401 for different times. Samples of equal total proteins were then subjected to in vitro DNA-binding activity and EMSA analysis or for SDS-PAGE and Western blot analysis for phosphorylated and total Stat3.
Nuclear extract preparation and gel shift assays—Nuclear extract preparation from NIH3T3 stimulated by rhIL-6, NIH3T3/hEGFR stimulated by rhEGF, v-Src-transformed fibroblasts (NIH3T3/v-Src) or tumor cell lines and electrophoretic mobility shift assay were carried out as previously described (Turkson et al., 1998; Garcia et al., 1997; Yu et al., 1995). The ^32P-labeled oligonucleotide probes used are hSIE (high affinity sis-inducible element from the c-fos gene, m67 variant, 5′-[…]) (SEQ ID NO:1) that binds Stat1 and Stat3 (Garcia et al., 1997; Wagner et al., 1990) and MGFe (mammary gland factor element from the bovine β-casein gene promoter, 5′-AGATTTCTAGGAATTCAA) (SEQ ID NO:2) for Stat1 and Stat5 binding (49,50). Except where indicated, inhibitor compound was pre-incubated with the nuclear extract for 30 min at room temperature prior to incubation with radiolabeled probe.
To further investigate the activities of PLATINUM-401, the inventors treated malignant cells and measured effects on Stat3 signaling. […] Taken together with the results in FIG. 1, these findings indicate that PLATINUM-401 blocks the binding of activated Stat3 to its responsive elements in the promoters of target genes. Moreover, in a time- and dose-dependent manner, PLATINUM-401 inhibits the constitutive or ligand-induced activation of Stat3 DNA-binding activity (FIG. 3C), as well as tyrosine phosphorylation in mouse fibroblasts (FIG. 3D and data not shown). […] Changes in Stat3 protein levels were minimal. […] Results together indicate that at the 5-10 μM PLATINUM-401 that inhibits intracellular Stat3 signaling, there is no observable non-specific effect on non-Stat3 related pathways investigated here.
To further elucidate the interaction between Stat3 and PLATINUM-401, v-Src-transformed mouse fibroblasts were transfected with Stat3 protein and then used to investigate PLATINUM-401 activity. The transfection of wild-type Stat3 into the v-Src-transformed fibroblasts results in higher Stat3 DNA-binding activity over that of parentals, as measured by in vitro DNA-binding activity and EMSA analysis (FIG. 7C, left panel, lanes 3 and 6 versus 1 and 2). This is due to the increased expression of Stat3 protein and the consequent phosphorylation by oncogenic Src tyrosine kinase that is present in these cells.

NIH3T3/v-Ras fibroblasts = experiment: Soft-agar colony formation assay; settings: treated every 2-3 days until large colonies evident
Protocol: (§1) FIG. 4. Abrogation of Stat3-dependent viral Src transformation. Viral Src-transformed fibroblasts (NIH3T3/v-Src) and their Ras-transformed counterparts (NIH3T3/v-Ras) were seeded in soft agar and growing cells were treated every 2-3 days with or without the indicated concentrations of PLATINUM-401 until large colonies were evident. Number of colonies of cells in soft agar were counted and expressed as % of control (non-treated) cells. Values are the mean and S.D. of the three independent assays.
(§2) Soft-agar colony formation assays—Colony formation assays were carried out in six-well dishes as previously described (Turkson et al., 1999). In brief, each well contained 1.5 ml of 1% agarose in DMEM as the bottom layer, and 1.5 ml of 0.5% agarose in DMEM containing 4000 or 6000 NIH3T3/v-Src or NIH3T3/v-Ras fibroblasts, respectively, as the top layer. Treatment with PLATINUM-401 was initiated 1 day after seeding cells by adding 75-100 μl of medium with or without compound, and repeated every three days, until large colonies were evident. Colonies were quantified by staining with 20 μl of 1 mg/ml iodonitrotetrazolium violet, incubating at 37° C. overnight and counting the next day.
(§3) PLATINUM-401 was next evaluated for effects on Stat3-mediated v-Src transformation (Turkson et al., 1998; Bromberg et al., 1998; Turkson et al., 1999).

NIH3T3/v-Src fibroblasts = experiment: Soft-agar colony formation assay; settings: treated every 2-3 days until large colonies evident
Protocol: as §1, §2, §3

CC(O)CN1CCN(CC(C)O)CC1 (stereo not shown) [PLATINUM-401] was tested, and the “constitutively-active Stat3 DNA-binding activity, cells transfected with wild-type Stat3” value ([1]; NIH3T3/v-Src transfected with exogenous wild-type Stat3, 5 μM, 36 h) was “no significant reduction”, the “time required for significant inhibition of constitutively-active Stat3” value ([1]; NIH3T3/v-Src, data not shown) was greater than 12 h and the “concentration that inhibits intracellular Stat3 signaling” value ([1]; mouse fibroblasts) was 5 to 10 µM. The “constitutively-active Stat3 DNA-binding activity, mock-transfected cells” value ([1]; parental, mock-transfected NIH3T3/v-Src, 5 μM, 36 h) was “significant reduction”, the “constitutive activation of Stat3 DNA-binding activity” value ([1]; time- and dose-dependent) was “inhibits” and the “growth in soft agar” value (NIH3T3/v-Ras fibroblasts) was “only partially inhibits growth”. For the same molecule, the “growth in soft agar” value (NIH3T3/v-Src fibroblasts) was “strongly suppresses growth”.

From US11571418B2, “Platinum compounds that inhibit constitutive STAT3 signaling and induce cell cycle arrest and apoptosis of malignant cells” (H. LEE MOFFITT CANCER CENTER AND RESEARCH INSTITUTE, INC., priority 2011, dated 2023)
